# Test system: MDA-MB-468 spheroids with HUVEC/MSC, viability
# Assay: Anticancer human tumor MDA-MB-468 cell line growth inhibition [PI3K];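 note: spheroids exposed to agents for seven days before readout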;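 for viability, T/C: 100% = DMSO vehicle control viability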
# Conditions: for IC50: curve of first compound; for viability, T/C: stronger effect = lower value
# Text: Combinatorial screen of targeted agents with the PI3K inhibitors inavolisib, alpelisib, duvelisib, and copanlisib in multi-cell type tumor spheroids
# A high-throughput screen of multi-cell type tumor spheroids was designed to identify active combinations of targeted small molecules and PI3K pathway inhibitors. Complex spheroids include a stromal component modeled by human endothelial cells (HUVEC) and fibroblasts modeled by human mesenchymal stem cells (MSCs). The concentration ranges selected for each drug and investigational agent were based upon clinically achievable concentrations if the clinical Cmax of the agent was known.
# Compounds. The drugs and investigational agents: inavolisib (NSC800729), alpelisib (NSC765974), duvelisib (NSC772469), copanlisib (NSC816437), ipatasertib (NSC767898), afuresertib (NSC778305), talazoparib (NSC767125), sapanisertib (NSC764658), selumetinib (NSC741078), tovorafenib (DAY101, NSC766906), vemurafenib (NSC761431), ravoxertinib (NSC781343), sotorasib (NSC818433), MRTX1133 (NSC 836407), abemaciclib (NSC 768073), palbociclib (NSC758247), venetoclax (NSC 766270), SY5609 (NSC837396), enzalutamide (NSC755605), and darolutamide (NSC825331), were obtained from the National Cancer Institute (NCI) Developmental Therapeutics Program Chemical Repository. The FDA-approved anticancer drug set is available from the NCI Developmental Therapeutics Program. […] The stock solutions were prepared in dimethyl sulfoxide (DMSO, Sigma-Aldrich, St. Louis, MO, cat. D2650) at 800-fold the tested concentration and stored at -70 degrees C prior to their use. All drugs and investigational agents were tested over a range starting from a high concentration at or near the clinical Cmax and decreasing in half-log increments. If the clinical Cmax for an agent had not been determined, the highest concentration tested was 10 microM.
# Cell Culture. All cells were maintained in an incubator at 37 degrees C and 5% CO2 with 95% humidity. The PDC lines were cultured according to standard operating procedures established by the NCI PDMR (https://pdmr.cancer.gov/sops/default.htm). All PDCs were thawed and cultured in Matrigel-coated flasks prepared with a working solution of 1X Ham's F-12 nutrient mix, without supplementation (Invitrogen, Waltham, MA, cat. 11765054), 100 U/mL penicillin-streptomycin (Invitrogen, cat. 15140122), and 2.5% Matrigel (Corning Inc., Corning, NY, cat. 354248) for the first three passages. The 354836-022-R-J1-PDC, 475296-252-R-J1-PDC, and 997726-040-R-J2-PDC lines were cultured in 6A media, which includes advanced DMEM/F-12 (Thermo Fisher Scientific, cat. 12634028), 10 mM HEPES (Thermo Fisher Scientific, cat. 15630080), 1X GlutaMAX supplement (Thermo Fisher Scientific, cat. 35050061), 0.1 mg/mL primocin (InvivoGen, San Diego, CA, cat. ant-pm-2), 10% defined fetal bovine serum, heat inactivated (HyClone Laboratories Inc., Logan, UT, cat. SH30070.03HI), 50% L-WRN conditioned media (ATCC, cat. CRL-3276), 1.25 mM N-Acetyl-L-cysteine (Sigma-Aldrich, cat. A9165), 10 mM nicotinamide (Sigma-Aldrich, cat. N0636), 1X B-27 supplement (Thermo Fisher Scientific, cat. 17504044), 1X N-2 supplement (Thermo Fisher Scientific, cat. 17502048), and 10 microM Y-27632 dihydrochloride (Tocris Bioscience, Bristol, United Kingdom, cat. 1254). The 624824-186-R-J2-PDC line was cultured in 6C/Colon 1B media, which includes all 6A media components plus 50 ng/mL human EGF recombinant protein (Thermo Fisher Scientific, cat. PHG0311). […]
smiles,measurement,setting,value
Cn1cnc2c(F)c(Nc3ccc(Br)cc3Cl)c(C(=O)NOCCO)cc21 + CC(Nc1ncnc2nc[nH]c12)c1cc2cccc(Cl)c2c(=O)n1-c1ccccc1,IC50,second compound 0.0316 µM,> 3 µM
same,IC50,second compound 0.1 µM,> 3 µM
same,IC50,second compound 0.316 µM,> 3 µM
same,IC50,second compound 1 µM,> 3 µM
same,IC50,second compound 3.16 µM,1.96 µM
same,IC50,second compound 10 µM,< 0.00949 µM
same,"viability, T/C","second compound 0.0316 µM, first compound 0.00949 µM",88.8%
same,"viability, T/C","second compound 0.0316 µM, first compound 0.03 µM",90%
same,"viability, T/C","second compound 0.0316 µM, first compound 0.0949 µM",82.5%
same,"viability, T/C","second compound 0.0316 µM, first compound 0.3 µM",92.8%
same,"viability, T/C","second compound 0.0316 µM, first compound 0.949 µM",81.8%
same,"viability, T/C","second compound 0.0316 µM, first compound 3 µM",57.5%
same,"viability, T/C","second compound 0.1 µM, first compound 0.00949 µM",77%
same,"viability, T/C","second compound 0.1 µM, first compound 0.03 µM",86.9%
same,"viability, T/C","second compound 0.1 µM, first compound 0.0949 µM",101%
same,"viability, T/C","second compound 0.1 µM, first compound 0.3 µM",89.1%
same,"viability, T/C","second compound 0.1 µM, first compound 0.949 µM",86.1%
same,"viability, T/C","second compound 0.1 µM, first compound 3 µM",58.4%
same,"viability, T/C","second compound 0.316 µM, first compound 0.00949 µM",85.2%
same,"viability, T/C","second compound 0.316 µM, first compound 0.03 µM",83.8%
same,"viability, T/C","second compound 0.316 µM, first compound 0.0949 µM",75.6%
same,"viability, T/C","second compound 0.316 µM, first compound 0.3 µM",92.5%
same,"viability, T/C","second compound 0.316 µM, first compound 0.949 µM",90.3%
same,"viability, T/C","second compound 0.316 µM, first compound 3 µM",60.7%
same,"viability, T/C","second compound 1 µM, first compound 0.00949 µM",63.4%
same,"viability, T/C","second compound 1 µM, first compound 0.03 µM",66.1%
same,"viability, T/C","second compound 1 µM, first compound 0.0949 µM",76%
same,"viability, T/C","second compound 1 µM, first compound 0.3 µM",73.9%
same,"viability, T/C","second compound 1 µM, first compound 0.949 µM",67.6%
same,"viability, T/C","second compound 1 µM, first compound 3 µM",58.8%
same,"viability, T/C","second compound 3.16 µM, first compound 0.00949 µM",58.2%
same,"viability, T/C","second compound 3.16 µM, first compound 0.03 µM",58.5%
same,"viability, T/C","second compound 3.16 µM, first compound 0.0949 µM",55.8%
same,"viability, T/C","second compound 3.16 µM, first compound 0.3 µM",54.3%
same,"viability, T/C","second compound 3.16 µM, first compound 0.949 µM",66%
same,"viability, T/C","second compound 3.16 µM, first compound 3 µM",37.2%
same,"viability, T/C","second compound 10 µM, first compound 0.00949 µM",43.3%
same,"viability, T/C","second compound 10 µM, first compound 0.03 µM",41.2%
same,"viability, T/C","second compound 10 µM, first compound 0.0949 µM",37.6%
same,"viability, T/C","second compound 10 µM, first compound 0.3 µM",35.6%
same,"viability, T/C","second compound 10 µM, first compound 0.949 µM",29.4%
same,"viability, T/C","second compound 10 µM, first compound 3 µM",16.4%
